Laboratory results: PMC9137900, “Engineering Collariella virescens Peroxygenase for Epoxides Production from Vegetable Oil” (Antioxidants, 2022)
Numbering of substitutions follows the chain as printed.

Columns and labels:
Type in all cases: biochemical
[1] = target: T1, rCviUPO (native, non-mutated recombinant CviUPO) (Achaetomiella virescens, UniProt Z9FBJ6W4Y2); test: GC-MS quantification of oxygenated products, […] min reactions; conditions: 24 mM H2O2, 50 mM phosphate pH 7, 20% acetone
T1 construct: codon-optimized gene in pET23a, expressed in E. coli as active cytosolic enzyme without purification tag; heme-thiolate (EC 1.11.2.1); purified by cation exchange and Superdex 75
T1 sequence (Z9FBJ6W4Y2 1-226): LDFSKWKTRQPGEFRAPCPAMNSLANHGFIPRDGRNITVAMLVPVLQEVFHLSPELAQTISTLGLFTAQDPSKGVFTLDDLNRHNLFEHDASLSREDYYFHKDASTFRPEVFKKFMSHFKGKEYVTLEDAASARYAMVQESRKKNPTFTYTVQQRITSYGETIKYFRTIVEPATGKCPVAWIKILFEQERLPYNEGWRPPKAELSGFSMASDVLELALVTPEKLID

[2] = target: T2, rCviUPO (native, non-mutated recombinant CviUPO) (Achaetomiella virescens, UniProt Z9FBJ6W4Y2, F87A/T157A, form not given); test: as above; conditions: 24 mM H2O2, 50 mM phosphate pH 7, 20% acetone; substrate-inhibition model
T2 construct: codon-optimized gene in pET23a, expressed in E. coli as active cytosolic enzyme without purification tag; heme-thiolate (EC 1.11.2.1); purified by cation exchange and Superdex 75
T2 sequence (Z9FBJ6W4Y2 1-226 F87A/T157A): T1 sequence (Z9FBJ6W4Y2 1-226) with F87A, T157A

[3] = target: T2, rCviUPO (native, non-mutated recombinant CviUPO); test: as above; conditions: substrate inhibition constant; 24 mM H2O2, 50 mM phosphate pH 7, 20% acetone
[4] = target: T3, rCviUPO (native, non-mutated recombinant CviUPO) (Achaetomiella virescens, UniProt Z9FBJ6W4Y2, T157A); test: as above; conditions: 24 mM H2O2, 50 mM phosphate pH 7, 20% acetone
T3 construct: codon-optimized gene in pET23a, expressed in E. coli as active cytosolic enzyme without purification tag; heme-thiolate (EC 1.11.2.1); purified by cation exchange and Superdex 75
T3 sequence (Z9FBJ6W4Y2 1-226 T157A): T1 sequence (Z9FBJ6W4Y2 1-226) with T157A

[5] = target: T4, rCviUPO (native, non-mutated recombinant CviUPO) (Achaetomiella virescens, UniProt Z9FBJ6W4Y2, F87A); test: as above; conditions: 24 mM H2O2, 50 mM phosphate pH 7, 20% acetone; substrate-inhibition model
T4 construct: codon-optimized gene in pET23a, expressed in E. coli as active cytosolic enzyme without purification tag; heme-thiolate (EC 1.11.2.1); purified by cation exchange and Superdex 75
T4 sequence (Z9FBJ6W4Y2 1-226 F87A): T1 sequence (Z9FBJ6W4Y2 1-226) with F87A

[6] = target: T4, rCviUPO (native, non-mutated recombinant CviUPO); test: as above; conditions: substrate inhibition constant; 24 mM H2O2, 50 mM phosphate pH 7, 20% acetone
[7] = target: T5, rCviUPO (native, non-mutated recombinant CviUPO) (Achaetomiella virescens, UniProt Z9FBJ6W4Y2, I60A/L63A/F87A/T157A, form not given); test: as above; conditions: substrate inhibition constant; 24 mM H2O2, 50 mM phosphate pH 7, 20% acetone
T5 construct: codon-optimized gene in pET23a, expressed in E. coli as active cytosolic enzyme without purification tag; heme-thiolate (EC 1.11.2.1); purified by cation exchange and Superdex 75
T5 sequence (Z9FBJ6W4Y2 1-226 I60A/L63A/F87A/T157A): T1 sequence (Z9FBJ6W4Y2 1-226) with I60A, L63A, F87A, T157A

[8] = target: T5, rCviUPO (native, non-mutated recombinant CviUPO); test: as above; conditions: 24 mM H2O2, 50 mM phosphate pH 7, 20% acetone; substrate-inhibition model
[9] = target: T2, rCviUPO (native, non-mutated recombinant CviUPO); test: spectrophotometric initial rates, […] nm; conditions: 24 mM H2O2, 0.1 M acetate pH 3 or 5

CCCCCCCC/C=C\CCCCCCCC(=O)O [C18:1, oleic acid]
Km [1]: 58.8 ± 6 µM
Km [2]: 51.6 ± 5.4 µM
ki [3]: 2900 ± 610 µM
Km [4]: 89 ± 16.4 µM
Km [5]: 278 ± 49 µM
ki [6]: 1120 ± 400 µM
ki [7]: 1360 ± 710 µM
Km [8]: 399 ± 94.6 µM

COc1ccc(CO)cc1OC [veratryl alcohol]
Km [9]: 15000 µM
